In ChEMBL document CHEMBL1201862, “PubChem BioAssay data set” (2004):
The source made the active and inactive calls. The rule behind the calls is not given here.

Target: G-protein coupled receptor 55 (Homo sapiens, UniProt Q9Y2T6)
Assay: GPR55 antagonists blocking LPI-driven arrestin recruitment, primary screen, imaging, U2OS, beta-arrestin-GFP, LPI agonist (AID 2013);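 note: antagonist potency measured as reduced agonist-driven arrestin aggregation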
Assay type: functional

Sequence of G-protein coupled receptor 55 (Q9Y2T6 whole entry): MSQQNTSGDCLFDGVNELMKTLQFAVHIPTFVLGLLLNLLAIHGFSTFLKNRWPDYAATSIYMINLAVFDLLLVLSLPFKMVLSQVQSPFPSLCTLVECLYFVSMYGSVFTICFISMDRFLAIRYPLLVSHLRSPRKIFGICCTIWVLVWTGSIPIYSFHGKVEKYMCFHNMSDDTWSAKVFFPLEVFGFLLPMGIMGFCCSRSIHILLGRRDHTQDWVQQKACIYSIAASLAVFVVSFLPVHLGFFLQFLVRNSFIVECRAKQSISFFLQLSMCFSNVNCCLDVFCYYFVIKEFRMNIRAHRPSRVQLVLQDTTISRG

**Q.** For `NC(=O)c1cc(-c2ccccc2)nc(N2CCOCC2)n1`, which IC50 is on record?
**A.** 7.26 µM (active)
